Measurements: ChEMBL document CHEMBL2163216, “Design of fully synthetic, self-adjuvanting vaccine incorporating the tumor-associated carbohydrate Tn antigen and lipoamino acid-based Toll-like receptor 2 ligand” (J Med Chem, 2012)
The source made the active and inactive calls. The rule behind the calls is not given here. Where a SMILES comes first, the peptide text is derived from it. [ ]: non-standard residue; d: D form. The star is where a group is joined. ξ: configuration not given here. αGalNAc = CC(=O)N[C@@H]1[C@@H](O)[C@@H](O)[C@@H](CO)O[C@@H]1*; ξGly(tetradecyl) = CCCCCCCCCCCCCCC(N)C(=O)O

Tests used:
Mus musculus [1] = assay: Immunostimulatory activity in BALB/c (H-2d) mouse assessed as increase in IgG level at 30 ug, sc per week for 5 weeks measured on day 9 after last immunization by ELISA relative to untreated-control; type: functional, organism-based
Mus musculus [2] = assay: Immunostimulatory activity in BALB/c (H-2d) mouse assessed as increase in IgG level at 30 ug, sc per week for 5 weeks coadministered with complete freund's adjuvant measured on day 9 after last immunization by ELISA; type: functional, organism-based
[3] = target: Toll-like receptor 2 (Homo sapiens) (UniProt O60603); assay: Activation of human TLR2 expressed in HEK293 cells at 100 to 300 nM after 4 hrs by luciferase reporter gene assay; type: cell-based
Toll-like receptor 2 (Homo sapiens), sequence (O60603 whole entry): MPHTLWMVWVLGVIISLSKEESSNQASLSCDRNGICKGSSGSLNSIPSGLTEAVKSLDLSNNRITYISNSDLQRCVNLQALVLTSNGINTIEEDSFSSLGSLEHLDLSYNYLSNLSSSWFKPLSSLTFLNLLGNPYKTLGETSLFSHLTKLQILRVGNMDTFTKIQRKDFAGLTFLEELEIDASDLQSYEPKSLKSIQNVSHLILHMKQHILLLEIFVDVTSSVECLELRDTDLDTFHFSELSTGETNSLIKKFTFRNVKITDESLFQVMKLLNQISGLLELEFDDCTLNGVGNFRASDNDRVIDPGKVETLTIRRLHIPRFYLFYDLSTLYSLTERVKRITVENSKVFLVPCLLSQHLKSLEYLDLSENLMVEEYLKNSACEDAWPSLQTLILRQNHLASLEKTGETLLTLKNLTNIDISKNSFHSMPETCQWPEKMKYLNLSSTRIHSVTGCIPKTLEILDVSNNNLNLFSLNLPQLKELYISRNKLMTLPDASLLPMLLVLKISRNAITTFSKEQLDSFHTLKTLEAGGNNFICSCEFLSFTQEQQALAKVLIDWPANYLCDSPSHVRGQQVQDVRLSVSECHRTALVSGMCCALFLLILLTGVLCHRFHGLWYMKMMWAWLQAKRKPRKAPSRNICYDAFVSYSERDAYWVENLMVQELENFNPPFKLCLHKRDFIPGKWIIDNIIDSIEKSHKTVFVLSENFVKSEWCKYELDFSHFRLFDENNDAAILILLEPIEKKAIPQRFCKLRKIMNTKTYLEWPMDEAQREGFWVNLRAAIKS

| Activity [3] | Structure (SMILES) | Activity (Mus musculus [1]) | Activity (Mus musculus [2]) |
| --- | --- | --- | --- |
|  | CCCCCCCCCCCCCCC(NC(=O)C(CCCCCCCCCCCCCC)NC(=O)[C@H](CO)NC(=O)[C@H](CO)NC(=O)[C@H](CCCCN)NC(=O)[C@H](CO[C@H]1O[C@H](CO)[C@H](O)[C@H](O)[C@H]1NC(C)=O)NC(=O)[C@H](CO[C@H]1O[C@H](CO)[C@H](O)[C@H](O)[C@H]1NC(C)=O)NC(=O)[C@H](CO[C@H]1O[C@H](CO)[C@H](O)[C@H](O)[C@H]1NC(C)=O)NC(=O)[C@@H](NC(=O)[C@H](CC(=O)O)NC(=O)[C@H](CCCCN)NC(=O)[C@H](Cc1ccc(O)cc1)NC(=O)[C@@H](NC(=O)[C@@H](NC(=O)[C@H](CCCCN)NC(=O)[C@H](Cc1c[nH]c2ccccc12)NC(=O)[C@@H](NC(=O)[C@H](C)NC(=O)[C@H](Cc1ccccc1)NC(=O)[C@H](CC(C)C)NC(=O)[C@H](CCCCN)NC(=O)[C@H](CC(C)C)NC(=O)[C@H](CCCCN)NC(=O)[C@H](CCC(=O)O)NC(=O)[C@H](Cc1ccccc1)NC(=O)[C@H](CC(N)=O)NC(=O)[C@@H](NC(=O)[C@@H](NC(=O)[C@H](CO)NC(C)=O)[C@@H](C)CC)[C@@H](C)CC)C(C)C)[C@@H](C)CC)[C@@H](C)O)[C@@H](C)O)C(N)=O (stereo partly specified) | inactive | Active |
|  | CCCCCCCCCCCCCCC(NC(=O)C(CCCCCCCCCCCCCC)NC(=O)[C@H](CO)NC(=O)[C@H](CO)NC(=O)[C@H](CCCCN)NC(=O)[C@H](CO[C@H]1O[C@H](CO)[C@H](O)[C@H](O)[C@H]1NC(C)=O)NC(=O)[C@H](CO[C@H]1O[C@H](CO)[C@H](O)[C@H](O)[C@H]1NC(C)=O)NC(=O)[C@H](CO[C@H]1O[C@H](CO)[C@H](O)[C@H](O)[C@H]1NC(C)=O)NC(=O)[C@H](CCCCNC(=O)[C@H](CC(C)C)NC(=O)[C@H](CCCCN)NC(=O)[C@H](CCC(=O)O)NC(=O)[C@H](Cc1ccccc1)NC(=O)[C@H](CC(N)=O)NC(=O)[C@@H](NC(=O)[C@@H](NC(=O)[C@H](CO)NC(C)=O)[C@@H](C)CC)[C@@H](C)CC)NC(=O)[C@@H](NC(=O)[C@H](CC(=O)O)NC(=O)[C@H](CCCCN)NC(=O)[C@H](Cc1ccc(O)cc1)NC(=O)[C@@H](NC(=O)[C@@H](NC(=O)[C@H](CCCCN)NC(=O)[C@H](Cc1c[nH]c2ccccc12)NC(=O)[C@@H](NC(=O)[C@H](C)NC(=O)[C@H](Cc1ccccc1)NC(=O)[C@H](CC(C)C)NC(=O)[C@H](CCCCN)NC(C)=O)C(C)C)[C@@H](C)CC)[C@@H](C)O)[C@@H](C)O)C(N)=O (stereo partly specified) | inactive |  |
| Active | CCCCCCCCCCCCCCC(NC(=O)C(CCCCCCCCCCCCCC)NC(=O)[C@H](CO)NC(=O)[C@H](CO)NC(=O)[C@H](CCCCN)NC(=O)[C@H](CO[C@H]1O[C@H](CO)[C@H](O)[C@H](O)[C@H]1NC(C)=O)NC(C)=O)C(N)=O (stereo partly specified) (Ac-S(αGalNAc)KSS[ξGly(tetradecyl)][ξGly(tetradecyl)]-NH2) |  |  |
|  | CCCCCCCCCCCCCCC(NC(=O)C(CCCCCCCCCCCCCC)NC(=O)[C@H](CO)NC(=O)[C@H](CO)NC(=O)[C@H](CCCCN)NC(=O)[C@H](CO[C@H]1O[C@H](CO)[C@H](O)[C@H](O)[C@H]1NC(C)=O)NC(=O)[C@H](CO[C@H]1O[C@H](CO)[C@H](O)[C@H](O)[C@H]1NC(C)=O)NC(=O)[C@H](CO[C@H]1O[C@H](CO)[C@H](O)[C@H](O)[C@H]1NC(C)=O)NC(=O)[C@@H](NC(=O)[C@H](CC(=O)O)NC(=O)[C@H](CCCCN)NC(=O)[C@H](Cc1ccc(O)cc1)NC(=O)[C@@H](NC(=O)[C@@H](NC(=O)[C@H](CCCCN)NC(=O)[C@H](Cc1c[nH]c2ccccc12)NC(=O)[C@@H](NC(=O)[C@H](C)NC(=O)[C@H](Cc1ccccc1)NC(=O)[C@H](CC(C)C)NC(=O)[C@H](CCCCN)NC(C)=O)C(C)C)[C@@H](C)CC)[C@@H](C)O)[C@@H](C)O)C(N)=O (stereo partly specified) | Active | Active |
